Common to all, as to test: KINOMEscan competition binding
What all share (conditions): compound 10.0 µM

Test [1] concerns PIK3CA (human), P42336 [E545K].
A further test has as its target PRKG2 (human) (UniProt Q13237).
The next test concerns the target PHKG1 (human) (UniProt Q16816).
Test [2] concerns ABL1 (human), P00519 [Y253F].
For another test, the target named is AXL (human) (UniProt P30530).
The next test has as its target EPHA3 (human) (UniProt P29320).
For the next test, the target named is MAPK12 (human) (UniProt P53778).
For a further test, the target named is EPHB2 (human) (UniProt P29323).
In the next test the target is RPS6KA2 KD1 (human) (UniProt Q15349).
In the next test the target is CDC42BPA (human) (UniProt Q5VT25).
The target of another test is MAP4K1 (human) (UniProt Q92918).
In a further test the target is ACVR1B (human) (UniProt P36896).
The target in a further test is EPHB1 (human) (UniProt P54762).
In the next test the target is PRKACB (human) (UniProt P22694).
The next test concerns the target NTRK1 (human) (UniProt P04629).
The next test addresses FGFR2 (human) (UniProt P21802).
The target of the next test is MARK2 (human) (UniProt Q7KZI7).
For another test, the target named is LIMK1 (human) (UniProt P53667).
Test [3] has as its system FGFR3 (human), P22607 [G697C].
The target of another test is MAP3K10 (human) (UniProt Q02779).
For a further test, the target named is PRKAA2 (human) (UniProt P54646).
The target of a further test is FGFR1 (human) (UniProt P11362).
For the next test, the target named is NEK6 (human) (UniProt Q9HC98).
The next test has as its target CSF1R (human) (UniProt P07333).
Another test deals with ANKK1 (human) (UniProt Q8NFD2).
Another test has as its target EPHA8 (human) (UniProt P29322).
A further test addresses IGF1R (human) (UniProt P08069).
A further test has as its target AKT1 (human) (UniProt P31749).
The target of another test is CAMK2D (human) (UniProt Q13557).
In the next test the target is MAP3K4 (human) (UniProt Q9Y6R4).
In a further test the target is MYO3A (human) (UniProt Q8NEV4).
The next test concerns the target IKBKB (human) (UniProt O14920).
The next test deals with SIK1 (human) (UniProt P57059).
The next test has as its target LYN (human) (UniProt P07948).
The target in a further test is PTK6 (human) (UniProt Q13882).
For a further test, the target named is NTRK3 (human) (UniProt Q16288).
Another test addresses CDC42BPB (human) (UniProt Q9Y5S2).
The next test deals with MAPK1 (human) (UniProt P28482).
The target in another test is ULK1 (human) (UniProt O75385).
Another test has as its target EPHB3 (human) (UniProt P54753).
In the next test the target is FLT4 (human) (UniProt P35916).
Chain of FLT4 (human) (P35916 whole entry, looked up): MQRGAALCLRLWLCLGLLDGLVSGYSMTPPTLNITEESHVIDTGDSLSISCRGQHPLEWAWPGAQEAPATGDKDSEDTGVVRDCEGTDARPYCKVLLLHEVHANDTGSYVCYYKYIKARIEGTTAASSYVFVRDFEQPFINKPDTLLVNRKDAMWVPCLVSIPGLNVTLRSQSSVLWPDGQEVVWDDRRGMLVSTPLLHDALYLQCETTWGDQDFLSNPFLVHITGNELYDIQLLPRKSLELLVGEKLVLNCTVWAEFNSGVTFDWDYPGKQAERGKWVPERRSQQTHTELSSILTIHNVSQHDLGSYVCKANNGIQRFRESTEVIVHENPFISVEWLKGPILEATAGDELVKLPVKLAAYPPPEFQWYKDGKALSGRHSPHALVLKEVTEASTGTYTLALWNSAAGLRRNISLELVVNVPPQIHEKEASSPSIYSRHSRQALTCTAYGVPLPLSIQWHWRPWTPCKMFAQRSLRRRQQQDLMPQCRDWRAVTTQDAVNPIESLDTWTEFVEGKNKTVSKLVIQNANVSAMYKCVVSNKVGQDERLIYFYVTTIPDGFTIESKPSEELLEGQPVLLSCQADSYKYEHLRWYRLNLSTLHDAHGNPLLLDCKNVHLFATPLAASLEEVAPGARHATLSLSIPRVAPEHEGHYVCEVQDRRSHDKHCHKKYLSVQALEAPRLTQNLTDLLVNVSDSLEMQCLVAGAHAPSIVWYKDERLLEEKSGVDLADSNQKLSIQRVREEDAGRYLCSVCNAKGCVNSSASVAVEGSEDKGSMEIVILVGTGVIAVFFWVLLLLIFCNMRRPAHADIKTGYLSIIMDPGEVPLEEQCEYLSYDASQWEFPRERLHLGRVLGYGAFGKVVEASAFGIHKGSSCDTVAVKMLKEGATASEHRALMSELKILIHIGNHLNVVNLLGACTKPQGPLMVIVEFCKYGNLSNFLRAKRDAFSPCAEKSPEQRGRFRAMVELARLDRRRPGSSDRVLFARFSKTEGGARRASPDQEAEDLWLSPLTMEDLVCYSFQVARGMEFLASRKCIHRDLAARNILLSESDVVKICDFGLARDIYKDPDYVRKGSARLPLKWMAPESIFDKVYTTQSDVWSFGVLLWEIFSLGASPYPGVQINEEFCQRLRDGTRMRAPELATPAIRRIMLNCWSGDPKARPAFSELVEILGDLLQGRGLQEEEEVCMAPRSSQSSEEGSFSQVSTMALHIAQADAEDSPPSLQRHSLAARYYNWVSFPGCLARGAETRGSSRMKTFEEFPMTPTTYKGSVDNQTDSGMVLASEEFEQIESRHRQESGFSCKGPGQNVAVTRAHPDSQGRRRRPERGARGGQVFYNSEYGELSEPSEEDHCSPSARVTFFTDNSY
The target in a further test is KDR (human) (UniProt P35968).

Among the data in the kinase profiling compilation of Christmann-Franck et al. (2016) are kinase still bound, per cent of control values, retold here.

Chain of PIK3CA (human), P42336 [E545K] (P42336 whole entry E545K, looked up): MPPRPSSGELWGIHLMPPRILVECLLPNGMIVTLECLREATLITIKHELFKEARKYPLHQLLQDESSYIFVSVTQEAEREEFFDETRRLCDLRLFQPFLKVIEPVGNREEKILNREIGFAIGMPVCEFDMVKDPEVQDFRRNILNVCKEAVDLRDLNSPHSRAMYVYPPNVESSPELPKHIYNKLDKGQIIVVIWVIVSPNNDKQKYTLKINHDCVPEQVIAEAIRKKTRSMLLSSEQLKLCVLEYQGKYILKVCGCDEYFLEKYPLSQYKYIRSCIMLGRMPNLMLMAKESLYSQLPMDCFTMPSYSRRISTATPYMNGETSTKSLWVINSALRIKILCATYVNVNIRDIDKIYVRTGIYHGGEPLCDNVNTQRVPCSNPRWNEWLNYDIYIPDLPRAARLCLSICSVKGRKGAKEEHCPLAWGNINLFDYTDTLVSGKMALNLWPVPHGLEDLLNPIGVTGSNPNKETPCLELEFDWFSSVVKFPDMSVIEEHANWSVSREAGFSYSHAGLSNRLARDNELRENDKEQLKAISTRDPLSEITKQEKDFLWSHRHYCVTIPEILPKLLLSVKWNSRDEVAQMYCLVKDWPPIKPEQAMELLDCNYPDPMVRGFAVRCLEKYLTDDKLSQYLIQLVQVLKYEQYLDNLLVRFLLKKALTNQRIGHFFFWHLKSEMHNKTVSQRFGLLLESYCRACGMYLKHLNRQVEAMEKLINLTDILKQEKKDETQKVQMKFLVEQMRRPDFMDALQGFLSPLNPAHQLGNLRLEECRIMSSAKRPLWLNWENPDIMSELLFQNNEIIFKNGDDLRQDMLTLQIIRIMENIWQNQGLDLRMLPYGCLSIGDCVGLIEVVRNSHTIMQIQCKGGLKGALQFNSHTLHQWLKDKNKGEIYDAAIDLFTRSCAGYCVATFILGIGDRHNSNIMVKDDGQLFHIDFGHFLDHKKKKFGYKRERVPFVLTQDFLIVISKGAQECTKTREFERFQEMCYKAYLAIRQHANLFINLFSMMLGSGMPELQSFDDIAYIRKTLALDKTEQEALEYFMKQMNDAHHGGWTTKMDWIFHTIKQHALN
Chain of CDC42BPB (human) (Q9Y5S2 whole entry, looked up): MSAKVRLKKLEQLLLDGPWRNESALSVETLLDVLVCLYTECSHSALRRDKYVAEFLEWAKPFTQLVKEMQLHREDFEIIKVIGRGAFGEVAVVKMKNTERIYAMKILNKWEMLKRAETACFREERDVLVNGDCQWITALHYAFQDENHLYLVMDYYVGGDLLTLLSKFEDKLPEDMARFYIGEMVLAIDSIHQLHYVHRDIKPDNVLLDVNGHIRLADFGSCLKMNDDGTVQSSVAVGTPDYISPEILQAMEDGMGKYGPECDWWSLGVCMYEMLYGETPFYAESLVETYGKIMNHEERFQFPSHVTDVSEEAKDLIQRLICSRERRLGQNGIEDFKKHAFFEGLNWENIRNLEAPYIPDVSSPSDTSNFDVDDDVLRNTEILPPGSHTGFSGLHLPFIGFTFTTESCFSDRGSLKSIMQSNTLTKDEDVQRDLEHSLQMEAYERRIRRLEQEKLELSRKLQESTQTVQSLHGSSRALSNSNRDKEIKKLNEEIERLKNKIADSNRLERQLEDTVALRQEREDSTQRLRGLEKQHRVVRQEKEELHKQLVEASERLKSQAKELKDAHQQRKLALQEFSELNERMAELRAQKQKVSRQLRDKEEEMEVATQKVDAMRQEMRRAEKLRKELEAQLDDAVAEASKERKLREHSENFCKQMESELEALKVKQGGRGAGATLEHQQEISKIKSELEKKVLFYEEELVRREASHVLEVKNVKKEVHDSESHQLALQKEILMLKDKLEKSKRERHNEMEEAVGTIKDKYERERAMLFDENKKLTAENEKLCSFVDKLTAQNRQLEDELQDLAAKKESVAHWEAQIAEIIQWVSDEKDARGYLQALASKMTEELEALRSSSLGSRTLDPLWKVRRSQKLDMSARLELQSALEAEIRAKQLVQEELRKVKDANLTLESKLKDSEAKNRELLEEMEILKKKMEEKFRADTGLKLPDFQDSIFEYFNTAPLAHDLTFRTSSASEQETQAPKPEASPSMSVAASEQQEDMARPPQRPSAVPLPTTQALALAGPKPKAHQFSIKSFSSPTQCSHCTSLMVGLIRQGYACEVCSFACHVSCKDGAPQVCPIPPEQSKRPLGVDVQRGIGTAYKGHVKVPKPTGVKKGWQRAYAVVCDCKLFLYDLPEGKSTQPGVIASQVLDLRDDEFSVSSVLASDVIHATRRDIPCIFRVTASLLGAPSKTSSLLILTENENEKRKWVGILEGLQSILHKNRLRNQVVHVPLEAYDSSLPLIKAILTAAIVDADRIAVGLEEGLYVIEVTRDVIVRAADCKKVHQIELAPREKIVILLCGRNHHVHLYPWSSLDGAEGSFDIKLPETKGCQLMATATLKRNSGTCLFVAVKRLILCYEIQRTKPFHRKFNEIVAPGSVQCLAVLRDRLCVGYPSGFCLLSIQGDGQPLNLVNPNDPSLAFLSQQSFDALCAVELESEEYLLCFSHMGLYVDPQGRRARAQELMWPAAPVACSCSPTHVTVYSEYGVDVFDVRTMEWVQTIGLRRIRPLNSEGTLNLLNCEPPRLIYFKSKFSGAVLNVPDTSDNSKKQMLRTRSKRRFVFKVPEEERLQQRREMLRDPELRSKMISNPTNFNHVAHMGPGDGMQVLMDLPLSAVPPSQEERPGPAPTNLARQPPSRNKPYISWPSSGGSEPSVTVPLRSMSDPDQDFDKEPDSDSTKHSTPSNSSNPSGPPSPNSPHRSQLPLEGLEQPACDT
Chain of EPHA3 (human) (P29320 whole entry, looked up): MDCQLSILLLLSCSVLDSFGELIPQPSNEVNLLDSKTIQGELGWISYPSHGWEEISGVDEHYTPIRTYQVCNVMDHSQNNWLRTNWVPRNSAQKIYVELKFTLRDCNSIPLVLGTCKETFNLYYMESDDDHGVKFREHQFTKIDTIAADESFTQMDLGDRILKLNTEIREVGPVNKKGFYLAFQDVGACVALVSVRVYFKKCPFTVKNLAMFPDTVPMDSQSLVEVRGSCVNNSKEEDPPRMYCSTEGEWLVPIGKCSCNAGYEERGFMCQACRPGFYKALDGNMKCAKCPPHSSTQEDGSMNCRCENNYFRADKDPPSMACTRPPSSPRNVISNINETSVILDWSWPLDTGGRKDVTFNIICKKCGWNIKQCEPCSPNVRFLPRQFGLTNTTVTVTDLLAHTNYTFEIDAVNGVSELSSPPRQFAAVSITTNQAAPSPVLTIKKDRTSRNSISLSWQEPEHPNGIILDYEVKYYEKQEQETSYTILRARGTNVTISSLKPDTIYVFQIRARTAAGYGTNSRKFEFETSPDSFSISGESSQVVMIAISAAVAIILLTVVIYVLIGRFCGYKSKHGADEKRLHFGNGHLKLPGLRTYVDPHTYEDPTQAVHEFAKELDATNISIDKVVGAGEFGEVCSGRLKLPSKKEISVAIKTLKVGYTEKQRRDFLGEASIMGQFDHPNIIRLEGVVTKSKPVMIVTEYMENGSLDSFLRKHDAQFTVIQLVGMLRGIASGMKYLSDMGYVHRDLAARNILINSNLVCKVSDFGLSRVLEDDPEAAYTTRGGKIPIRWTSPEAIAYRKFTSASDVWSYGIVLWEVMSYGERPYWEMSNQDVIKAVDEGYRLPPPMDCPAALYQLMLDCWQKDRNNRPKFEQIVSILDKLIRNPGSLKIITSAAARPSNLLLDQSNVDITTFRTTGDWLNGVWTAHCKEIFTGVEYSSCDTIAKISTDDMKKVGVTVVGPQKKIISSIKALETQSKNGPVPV

`N=C1NC(=O)/C(=C/c2ccc(-c3ccccc3O)o2)S1` yielded a kinase still bound, per cent of control in test [1] of 21%.

`COc1cc(N2CCN(C)CC2)ccc1Nc1ncc2c(n1)Nc1ccccc1NC2=O`: the kinase still bound, per cent of control at PRKG2 (human) was 100%; at PHKG1 (human), 46%; in test [2], 26%; on AXL (human) it was 83%; on EPHA3 (human) it was 61%; on MAPK12 (human), 81%. For the same compound, the kinase still bound, per cent of control is 82% on EPHB2 (human); 61% at RPS6KA2 KD1 (human); 100% on CDC42BPA (human); 100% on MAP4K1 (human); 100% on ACVR1B (human); 96% on EPHB1 (human). Moreover, the kinase still bound, per cent of control is 100% at PRKACB (human); 1.6% on NTRK1 (human); 87% on FGFR2 (human); 100% on MARK2 (human); 100% at LIMK1 (human); 84% in [3]. Besides, the kinase still bound, per cent of control in [1] was found to be 100%; on MAP3K10 (human) it was 100%; on PRKAA2 (human), 84%; on FGFR1 (human), 80%; on NEK6 (human), 99%; at CSF1R (human), 75%. The kinase still bound, per cent of control on ANKK1 (human) was determined as 82%; on EPHA8 (human), 80%; at IGF1R (human), 100%; on AKT1 (human), 100%; at CAMK2D (human) it was 92%; on MAP3K4 (human), 95%. Moreover, the kinase still bound, per cent of control on MYO3A (human) was 80%; on IKBKB (human), 100%; on SIK1 (human), 27%; at LYN (human), 77%; at PTK6 (human) it was 82%; at NTRK3 (human), 2.1%. Also, the kinase still bound, per cent of control on CDC42BPB (human) stood at 100%; at MAPK1 (human), 94%; at ULK1 (human), 100%; on EPHB3 (human), 93%; on FLT4 (human), 10%; at KDR (human), 74%.

Compound `N=C1NC(=O)/C(=C/c2ccc(-c3ccc(C(N)=O)cc3O)o2)S1` displayed a kinase still bound, per cent of control at CAMK2D (human) of 34%.

As to `N=C1NC(=O)/C(=C/c2ccc(-c3csc4ccccc34)o2)S1`, the kinase still bound, per cent of control on NEK6 (human) was 25%; on CDC42BPB (human), 32%; at MAPK1 (human), 29%.

Turning to `CN1C(=O)[C@H]2CCC[C@H]2N(C2CCCC2)c2nc(Nc3ccc(C(N)=O)cc3)ncc21`, the kinase still bound, per cent of control is 13% on AXL (human), 24% on RPS6KA2 KD1 (human) and 26% at ANKK1 (human).

`CS(=O)(=O)Nc1ccc(-c2cncc(/C=C3\SC(=N)NC3=O)c2)cc1`: the kinase still bound, per cent of control was 29% on ACVR1B (human), 22% in [1] and 28% on FLT4 (human).

With `N=C1NC(=O)/C(=C/c2ccc(-c3ccc(F)cc3O)o2)S1`, the kinase still bound, per cent of control in [1] was 24%.

Turning to `O=C1NC(=S)S/C1=C\c1ccc(-c2cncc3ccccc23)o1`, the kinase still bound, per cent of control stood at 17% on EPHA3 (human); 32% on ACVR1B (human); 23% at MARK2 (human); 24% on NEK6 (human); 34% at ANKK1 (human); 32% on CAMK2D (human). Also, the kinase still bound, per cent of control on MYO3A (human) was 19%; at NTRK3 (human), 32%; on CDC42BPB (human), 30%; on FLT4 (human), 28%; at KDR (human) it was 21%.

For the compound `CSC1=NC(=O)/C(=C/c2c[nH]c(=O)c(-c3ccc(NS(C)(=O)=O)cc3)c2)S1`, the kinase still bound, per cent of control stood at 25% at IKBKB (human) and 23% at ULK1 (human).

As to `N=C1NC(=O)/C(=C/c2ccc(-c3cncc4ccccc34)o2)S1`, the kinase still bound, per cent of control at PHKG1 (human) was 23%; at EPHA3 (human), 13%; on RPS6KA2 KD1 (human), 26%; on PRKAA2 (human), 33%; on NEK6 (human), 31%; on CAMK2D (human), 7.6%. Also, the kinase still bound, per cent of control at MYO3A (human) was found to be 24%; on IKBKB (human), 26%.

Regarding `CS(=O)(=O)Nc1ccc(-c2ncc(/C=C3\SC(=N)NC3=O)s2)cc1`, the figures for the kinase still bound, per cent of control on ULK1 (human) and on FLT4 (human) were 33% and 3.6%, respectively.

At ULK1 (human), `N=C1NC(=O)/C(=C/c2c[nH]c(=O)c(-c3ccc(N4CCNCC4)nc3)c2)S1` displayed a kinase still bound, per cent of control of 33%.
